Article PMC5518309 (ChemMedChem, 2014)
Values belong to the molecule of their own block, whether it stands above or below them. Numbered stars: 1 amine (or outer) side, 2 acyl side, 3 side chain; on linkers, the order of the positions; unused ones are H or OH. Side chains are listed from the residue outwards. Peptide text beside a SMILES is read from it. * marks the point of attachment. X1 = CN(C)c1ccc2c(c1)Oc1cc(N(C)C)ccc1C21OC(=O)c2ccc(C(=O)*)cc21; γGlu = O=C(O)[C@H](CCC(=O)[*:2])N[*:1]; Palmitoyl = CCCCCCCCCCCCCCCC(=O)*; Octanoyl = CCCCCCCC(=O)*; Propionyl = CCC(=O)*

What was measured:
[1] = Stability test in human blood plasma; format: in vitro ADME; settings: for half-life at 10 μM: human
[2] = Metabolic stability in porcine liver homogenates; format: in vitro ADME; settings: pig, porcine liver homogenate (supernatant)
hY1R = target: T1, hY1R (Homo sapiens, UniProt P25929); assay: Inositol phosphate accumulation assay, hY1R; format: cell-based
T1 sequence (P25929 1-384): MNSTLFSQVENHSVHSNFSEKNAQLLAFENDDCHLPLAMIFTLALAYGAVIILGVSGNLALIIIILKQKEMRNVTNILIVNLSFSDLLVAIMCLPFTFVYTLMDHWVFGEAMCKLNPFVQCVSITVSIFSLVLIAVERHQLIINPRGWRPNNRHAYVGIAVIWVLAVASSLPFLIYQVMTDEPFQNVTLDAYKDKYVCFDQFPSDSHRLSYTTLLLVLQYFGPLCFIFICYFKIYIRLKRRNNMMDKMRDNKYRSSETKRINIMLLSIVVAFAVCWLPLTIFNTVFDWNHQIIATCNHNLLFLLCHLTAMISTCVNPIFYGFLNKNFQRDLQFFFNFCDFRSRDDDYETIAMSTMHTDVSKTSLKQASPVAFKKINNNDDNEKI

hY2R = target: T2, hY2R (Homo sapiens, UniProt P49146); assay: Inositol phosphate accumulation assay, hY2R; format: cell-based
T2 sequence (P49146 1-381): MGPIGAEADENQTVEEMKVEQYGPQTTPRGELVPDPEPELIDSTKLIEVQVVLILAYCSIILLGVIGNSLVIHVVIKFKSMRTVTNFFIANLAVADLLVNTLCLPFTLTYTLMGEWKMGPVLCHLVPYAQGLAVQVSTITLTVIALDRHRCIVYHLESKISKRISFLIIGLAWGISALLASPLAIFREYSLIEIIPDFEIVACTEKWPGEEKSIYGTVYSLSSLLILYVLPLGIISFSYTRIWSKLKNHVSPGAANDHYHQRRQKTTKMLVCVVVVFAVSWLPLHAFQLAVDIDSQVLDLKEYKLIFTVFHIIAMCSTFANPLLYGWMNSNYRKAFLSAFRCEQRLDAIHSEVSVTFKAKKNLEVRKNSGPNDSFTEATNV

hY4R = hY4R (Homo sapiens, UniProt P50391); assay: Inositol phosphate accumulation assay, hY4R; format: cell-based
hY5R = target: T3, hY5R (Homo sapiens, UniProt Q15761); assay: Inositol phosphate accumulation assay, hY5R; format: cell-based
T3 sequence (Q15761 1-445): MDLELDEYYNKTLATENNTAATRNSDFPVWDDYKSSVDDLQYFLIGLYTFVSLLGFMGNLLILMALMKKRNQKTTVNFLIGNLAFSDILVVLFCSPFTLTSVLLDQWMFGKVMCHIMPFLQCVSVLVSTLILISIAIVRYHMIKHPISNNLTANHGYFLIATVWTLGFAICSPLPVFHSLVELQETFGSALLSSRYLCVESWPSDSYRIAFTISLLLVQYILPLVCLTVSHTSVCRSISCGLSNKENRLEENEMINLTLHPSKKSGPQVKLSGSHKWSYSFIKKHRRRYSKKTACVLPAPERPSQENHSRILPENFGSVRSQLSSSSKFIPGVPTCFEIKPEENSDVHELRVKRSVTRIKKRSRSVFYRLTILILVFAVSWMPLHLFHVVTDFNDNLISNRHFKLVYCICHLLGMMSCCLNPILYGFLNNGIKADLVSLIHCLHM

Sequence of hY4R (P50391 whole entry): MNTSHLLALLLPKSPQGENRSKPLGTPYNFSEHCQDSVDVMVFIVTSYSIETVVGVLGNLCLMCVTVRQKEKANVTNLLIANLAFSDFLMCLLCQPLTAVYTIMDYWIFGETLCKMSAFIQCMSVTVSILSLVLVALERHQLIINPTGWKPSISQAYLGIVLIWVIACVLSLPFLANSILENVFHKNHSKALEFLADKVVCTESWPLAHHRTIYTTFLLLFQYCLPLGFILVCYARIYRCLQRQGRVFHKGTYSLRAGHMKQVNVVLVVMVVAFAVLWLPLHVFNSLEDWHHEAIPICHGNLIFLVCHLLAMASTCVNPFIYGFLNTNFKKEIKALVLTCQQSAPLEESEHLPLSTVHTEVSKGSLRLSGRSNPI

Structure (SMILES): CCCCCCCCCCCCCCCC(=O)N[C@@H](CCC(=O)NCCCC[C@H](NC(=O)[C@H](CC(N)=O)NC(=O)[C@@H](NC(=O)[C@H](Cc1ccc(O)cc1)NC(=O)[C@H](CCCNC(=N)N)NC(=O)[C@H](CCCNC(=N)N)NC(=O)[C@H](CC(C)C)NC(=O)[C@H](CC(=O)O)NC(=O)[C@H](C)NC(=O)[C@H](C)NC(=O)[C@H](Cc1ccc(O)cc1)NC(=O)[C@H](CCC(N)=O)NC(=O)[C@H](C)NC(=O)[C@H](CCSC)NC(=O)[C@H](CCC(N)=O)NC(=O)[C@H](CCC(=O)O)NC(=O)[C@@H]1CCCN1C(=O)[C@@H](NC(=O)[C@H](C)NC(=O)[C@H](CC(N)=O)NC(=O)[C@H](CC(=O)O)NC(=O)CNC(=O)[C@@H]1CCCN1C(=O)[C@H](Cc1ccc(O)cc1)NC(=O)[C@@H](NC(=O)[C@@H]1CCCN1C(=O)[C@H](CCC(=O)O)NC(=O)[C@H](CC(C)C)NC(=O)[C@@H]1CCCN1C(=O)c1ccc2c(c1)C1(OC2=O)c2ccc(N(C)C)cc2Oc2cc(N(C)C)ccc21)C(C)C)[C@@H](C)O)[C@@H](C)CC)C(=O)N[C@@H](CC(C)C)C(=O)N[C@H](C(=O)N[C@@H](CCCNC(=N)N)C(=O)N1CCC[C@H]1C(=O)N[C@@H](CCCNC(=N)N)C(=O)N[C@@H](Cc1ccc(O)cc1)C(N)=O)[C@@H](C)O)C(=O)O [18b, TAMRA-[K^30(E-Pam)]hPP2–36] (X1-PLEPVYPGDNATPEQMAQYAADLRRYINK([γGlu-Palmitoyl])LTRPRY-NH2)
fold increased half-life in human blood plasma compared to control peptide 14b ([1]; 37°C): more than 10 fold
half-life at 10 μM [1]: 1090 ± 282 h
half-life at 10 μM [2]: 11.8 ± 0.8 h

Structure (SMILES): CC[C@H](C)[C@H](NC(=O)[C@H](Cc1ccc(O)cc1)NC(=O)[C@H](CCCNC(=N)N)NC(=O)[C@H](CCCNC(=N)N)NC(=O)[C@H](CC(C)C)NC(=O)[C@H](CC(=O)O)NC(=O)[C@H](C)NC(=O)[C@H](C)NC(=O)[C@H](Cc1ccc(O)cc1)NC(=O)[C@H](CCC(N)=O)NC(=O)[C@H](C)NC(=O)[C@H](CCSC)NC(=O)[C@H](CCC(N)=O)NC(=O)[C@H](CCC(=O)O)NC(=O)[C@@H]1CCCN1C(=O)[C@@H](NC(=O)[C@H](C)NC(=O)[C@H](CC(N)=O)NC(=O)[C@H](CC(=O)O)NC(=O)CNC(=O)[C@@H]1CCCN1C(=O)[C@H](Cc1ccc(O)cc1)NC(=O)[C@@H](NC(=O)[C@@H]1CCCN1C(=O)[C@H](CCC(=O)O)NC(=O)[C@H](CC(C)C)NC(=O)[C@@H]1CCCN1C(=O)c1ccc2c(c1)C1(OC2=O)c2ccc(N(C)C)cc2Oc2cc(N(C)C)ccc21)C(C)C)[C@@H](C)O)C(=O)N[C@@H](CC(N)=O)C(=O)N[C@@H](CCCCN)C(=O)N[C@@H](CC(C)C)C(=O)N[C@H](C(=O)N[C@@H](CCCNC(=N)N)C(=O)N1CCC[C@H]1C(=O)N[C@@H](CCCNC(=N)N)C(=O)N[C@@H](Cc1ccc(O)cc1)C(N)=O)[C@@H](C)O [14b, TAMRA-[K^30]hPP2–36] (X1-PLEPVYPGDNATPEQMAQYAADLRRYINKLTRPRY-NH2)
half-life at 10 μM [1]: ~100 h
half-life at 10 μM [2]: 11 ± 0.4 h

Structure (SMILES): CCCCCCCC(=O)N[C@@H](CCC(=O)NCCCC[C@H](NC(=O)[C@H](CC(N)=O)NC(=O)[C@@H](NC(=O)[C@H](Cc1ccc(O)cc1)NC(=O)[C@H](CCCNC(=N)N)NC(=O)[C@H](CCCNC(=N)N)NC(=O)[C@H](CC(C)C)NC(=O)[C@H](CC(=O)O)NC(=O)[C@H](C)NC(=O)[C@H](C)NC(=O)[C@H](Cc1ccc(O)cc1)NC(=O)[C@H](CCC(N)=O)NC(=O)[C@H](C)NC(=O)[C@H](CCSC)NC(=O)[C@H](CCC(N)=O)NC(=O)[C@H](CCC(=O)O)NC(=O)[C@@H]1CCCN1C(=O)[C@@H](NC(=O)[C@H](C)NC(=O)[C@H](CC(N)=O)NC(=O)[C@H](CC(=O)O)NC(=O)CNC(=O)[C@@H]1CCCN1C(=O)[C@H](Cc1ccc(O)cc1)NC(=O)[C@@H](NC(=O)[C@@H]1CCCN1C(=O)[C@H](CCC(=O)O)NC(=O)[C@H](CC(C)C)NC(=O)[C@@H]1CCCN1C(=O)c1ccc2c(c1)C1(OC2=O)c2ccc(N(C)C)cc2Oc2cc(N(C)C)ccc21)C(C)C)[C@@H](C)O)[C@@H](C)CC)C(=O)N[C@@H](CC(C)C)C(=O)N[C@H](C(=O)N[C@@H](CCCNC(=N)N)C(=O)N1CCC[C@H]1C(=O)N[C@@H](CCCNC(=N)N)C(=O)N[C@@H](Cc1ccc(O)cc1)C(N)=O)[C@@H](C)O)C(=O)O [16b, TAMRA-[K^30(E-Capr)]hPP2–36] (X1-PLEPVYPGDNATPEQMAQYAADLRRYINK([γGlu-Octanoyl])LTRPRY-NH2)
half-life at 10 μM [1]: 281 ± 26.7 h
half-life at 10 μM [2]: 14.6 ± 2.8 h

Second part, the molecule after the results:

half-life at 10 μM [1]: ~100 h
half-life at 10 μM [2]: 19.7 ± 0.4 h
Structure (SMILES): CC[C@H](C)[C@H](NC(=O)[C@H](Cc1ccc(O)cc1)NC(=O)[C@H](CCCNC(=N)N)NC(=O)[C@H](CCCNC(=N)N)NC(=O)[C@H](CC(C)C)NC(=O)[C@H](CC(=O)O)NC(=O)[C@H](C)NC(=O)[C@H](C)NC(=O)[C@H](Cc1ccc(O)cc1)NC(=O)[C@H](CCC(N)=O)NC(=O)[C@H](C)NC(=O)[C@H](CCSC)NC(=O)[C@H](CCC(N)=O)NC(=O)[C@H](CCC(=O)O)NC(=O)[C@@H]1CCCN1C(=O)[C@@H](NC(=O)[C@H](C)NC(=O)[C@H](CC(N)=O)NC(=O)[C@H](CC(=O)O)NC(=O)CNC(=O)[C@@H]1CCCN1C(=O)[C@H](Cc1ccc(O)cc1)NC(=O)[C@@H](NC(=O)[C@@H]1CCCN1C(=O)[C@H](CCC(=O)O)NC(=O)[C@H](CC(C)C)NC(=O)[C@@H]1CCCN1)C(C)C)[C@@H](C)O)C(=O)N[C@@H](CC(N)=O)C(=O)N[C@@H](CCCCNC(=O)c1ccc2c(c1)C1(OC2=O)c2ccc(N(C)C)cc2Oc2cc(N(C)C)ccc21)C(=O)N[C@@H](CC(C)C)C(=O)N[C@H](C(=O)N[C@@H](CCCNC(=N)N)C(=O)N1CCC[C@H]1C(=O)N[C@@H](CCCNC(=N)N)C(=O)N[C@@H](Cc1ccc(O)cc1)C(N)=O)[C@@H](C)O [compound 20, [K^30(TAMRA)]hPP2–36] (H-PLEPVYPGDNATPEQMAQYAADLRRYINK(X1)LTRPRY-NH2)

EC50 (hY1R): > 1 µM
Emax (hY1R; read-out: hY1R Emax): 92 ± 4%
EC50 (hY2R): > 1 µM
Emax (hY2R; read-out: hY2R Emax): 88 ± 6%
EC50 (hY4R): 0.0011 µM
Emax (hY4R; read-out: hY4R Emax): 96 ± 6%
EC50 (hY5R): 0.0219 µM
Emax (hY5R; read-out: hY5R Emax): 83 ± 2%
Structure (SMILES): CCC(=O)N[C@@H](CCC(=O)NCCCC[C@H](NC(=O)[C@H](C)NC(=O)[C@H](Cc1ccc(O)cc1)NC(=O)[C@H](CCC(N)=O)NC(=O)[C@H](C)NC(=O)[C@H](CCSC)NC(=O)[C@H](CCC(N)=O)NC(=O)[C@H](CCC(=O)O)NC(=O)[C@@H]1CCCN1C(=O)[C@@H](NC(=O)[C@H](C)NC(=O)[C@H](CC(N)=O)NC(=O)[C@H](CC(=O)O)NC(=O)CNC(=O)[C@@H]1CCCN1C(=O)[C@H](Cc1ccc(O)cc1)NC(=O)[C@@H](NC(=O)[C@@H]1CCCN1C(=O)[C@H](CCC(=O)O)NC(=O)[C@H](CC(C)C)NC(=O)[C@@H]1CCCN1)C(C)C)[C@@H](C)O)C(=O)N[C@@H](CC(=O)O)C(=O)N[C@@H](CC(C)C)C(=O)N[C@@H](CCCNC(=N)N)C(=O)N[C@@H](CCCNC(=N)N)C(=O)N[C@@H](Cc1ccc(O)cc1)C(=O)N[C@H](C(=O)N[C@@H](CC(N)=O)C(=O)N[C@@H](CCSC)C(=O)N[C@@H](CC(C)C)C(=O)N[C@H](C(=O)N[C@@H](CCCNC(=N)N)C(=O)N1CCC[C@H]1C(=O)N[C@@H](CCCNC(=N)N)C(=O)N[C@@H](Cc1ccc(O)cc1)C(N)=O)[C@@H](C)O)[C@@H](C)CC)C(=O)O [compound 9, [K^22(E-Prop)]hPP2–36] (H-PLEPVYPGDNATPEQMAQYAK([γGlu-Propionyl])DLRRYINMLTRPRY-NH2)
